In article PMC7998731, “Pharmacokinetic Characterization of Supinoxin and Its Physiologically Based Pharmacokinetic Modeling in Rats” (Pharmaceutics, 2021):
Read-outs that look alike come from different tables or passages of the source.

Columns and labels:
[1] = cited from earlier work; for Plasma concentration, Mean: fasted male SD rats, intravenous 1 mg/kg, ref 15 (Table 1 footnote)
[2] = In vivo pharmacokinetic study, intravenous administration to rats; conditions: rat, plasma; for concentration at 0.083 h / concentration at 0.25 h / concentration at 0.5 h / concentration at 1 h / concentration at 3 h / concentration at 7 h / concentration at 10 h / concentration at 24 h: fasted male SD rats; for concentration at 24 h: BQL treated as 0; for AUC(0-inf) / AUC(0-t) / MRT / clearance / half-life / Vd: male
Protocol: (§1) Male Sprague Dawley (SD) rats, 6–7 weeks old, were purchased from Orient Bio Inc. (Seongnam-si, Korea) and were used in all in vivo studies. The animals were maintained at a temperature of 20–26 °C with a 12 h light/dark cycle and a relative humidity of 40–60%. The experimental protocols involving the animals used in this study were reviewed by the Animal Care and Use Committee of Chungnam National University (CNU-00576, Daejeon, Korea; approval date: 13 March 2015).
(§2) Supinoxin was dissolved in a vehicle (10% DMSO, 10% Tween 80, 40% PEG 400, and 40% saline). In single doses, the administration routes involved an intravenous bolus via the tail vein (n = 4–5) and an oral gavage dose (n = 4–5). The dosing volume was 2 mL per kg body weight, and the dosing range was 0.5, 1, and 5 mg/kg. Blood samples (200 µL) were collected from the jugular vein at 0.083 (intravenous only), 0.25, 0.5, 1, 3, 7, 10, and 24 h after dosing, using a heparinized syringe to ensure anticoagulation. During blood sampling, rats were placed in a restrainer (Nagai-CFS-1S; NMS, Tokyo, Japan). For the separation of plasma fractions, all blood samples were centrifuged at 17,600× g for 5 min. The samples were stored at −20 °C until analysis. When obtaining tissue concentrations to calculate the tissue-to-plasma partition ratio was necessary, samples of nine tissues (i.e., adipose, heart, muscle, kidney, brain, liver, spleen, gut, and lung) were collected at 0.33, 1, 3, 7, and 24 h after 5 mg/kg intravenous administration of supinoxin (n = 3).
(§3) The peak concentration (Cmax) and the time to reach Cmax (Tmax) were obtained directly from individual plasma concentration–time profiles. Linear trapezoidal rule was used to calculate the areas under the plasma concentration–time curve (AUC) and the first moment curve (AUMC), while the terminal half-life (T1/2) was calculated using 0.693/λ, where λ represents the slope of the log-transformed concentration–time profiles of the terminal phase. The systemic clearance (CL), mean residence time (MRT), and the volume of the distribution at the steady state (Vss) were calculated as follows: dose/AUC, AUMC/AUC, and MRT·CL, respectively. To calculate the absolute oral bioavailability (F) we divided the AUC obtained following oral administration by that obtained following intravenous administration of the respective dose.
(§4) To determine supinoxin concentrations in plasma, feces, and urine, we used a previously reported LC–MS/MS assay using DGG-200064 as an internal standard (IS). Briefly, an aliquot (50 μL) of IS solution (concentration 100 ng/mL) was added to 50 μL of plasma, feces, or urine sample, following which 400 μL of acetonitrile containing 0.1% formic acid was added. After vigorous vortexing for 10 min, the extract was centrifuged at 17,600 rpm for 10 min at 4 °C, and the supernatant was placed in an autosampler vial. An aliquot of 5 µL was then injected into the analytical column for chromatographic separation; the analytical system consisted of a 1200 series HPLC system (Applied Biosystems, Foster City, CA, USA) equipped with a turbo-electrospray interface in positive ionization mode.

[3] = In vivo pharmacokinetic study, oral administration to rats; conditions: Sprague-Dawley, rat, plasma; for concentration at 0.25 h / concentration at 0.5 h / concentration at 1 h / concentration at 3 h / concentration at 7 h / concentration at 10 h / concentration at 24 h: fasted male SD rats; for concentration at 24 h: BQL treated as 0; for AUC(0-inf) / AUC(0-t) / Cmax / MRT / Tmax / half-life / bioavailability: male, rats, oral
Protocol: as §1, §2, §3, §4

[4] = cited from earlier work; for Plasma concentration, Mean: fasted male SD rats, oral 1 mg/kg, ref 15 (Table 2 footnote)
[5] = rats, intravenous, 1 mg/kg, Jeong, J.-W. et al., 2017
[6] = Sprague-Dawley, intravenous 0.5 mg/kg
[7] = Sprague-Dawley, intravenous 5 mg/kg
[8] = Sprague Dawley, rats, intravenous, 0.5 mg/kg
[9] = Sprague Dawley, rats, intravenous, 5 mg/kg
[10] = rats, oral, 1 mg/kg, Jeong, J.-W. et al., 2017

concentration at 0.083 h [2, 6]: 313 ng/mL
concentration at 0.25 h [2, 6]: 255 ng/mL
concentration at 0.5 h [2, 6]: 206 ng/mL
concentration at 1 h [2, 6]: 140 ng/mL
concentration at 3 h [2, 6]: 79.3 ng/mL
concentration at 7 h [2, 6]: 20.8 ng/mL
concentration at 10 h [2, 6]: 8.2 ng/mL
concentration at 24 h [2, 6]: 0.3 ng/mL
concentration at 0.083 h [2, 7]: 2380 ng/mL
concentration at 0.25 h [2, 7]: 1640 ng/mL
concentration at 0.5 h [2, 7]: 1310 ng/mL
concentration at 1 h [2, 7]: 907 ng/mL
concentration at 3 h [2, 7]: 600 ng/mL
concentration at 7 h [2, 7]: 234 ng/mL
concentration at 10 h [2, 7]: 130 ng/mL
concentration at 24 h [2, 7]: 5.8 ng/mL
AUC(0-inf) [2, 8]: 727 ± 177 ng·h/mL
AUC(0-t) [2, 8]: 715 ± 180 ng·h/mL
MRT [2, 8]: 2.92 ± 0.65 h
clearance ([2]; Sprague Dawley, rats, intravenous, 0.5 mg/kg, read-out: CL (converted)): 11.9 mL/min/kg
half-life ([2]; Sprague Dawley, rats, intravenous, 0.5 mg/kg, read-out: T1/2 (converted)): 2.54 ± 0.83 h
AUC(0-inf) [2, 9]: 6130 ± 1750 ng·h/mL
AUC(0-t) [2, 9]: 6090 ± 1760 ng·h/mL
MRT [2, 9]: 4.07 ± 1.37 h
clearance ([2]; Sprague Dawley, rats, intravenous, 5 mg/kg, read-out: CL (converted)): 14.4 mL/min/kg
half-life ([2]; Sprague Dawley, rats, intravenous, 5 mg/kg, read-out: T1/2 (converted)): 2.8 ± 0.71 h
clearance ([2]; Sprague-Dawley, PBPK input parameter, Determined, from intravenous administration study, read-out: In vivo clearance (CLiv)): 3.16 mL/min
Vd ([2]; Sprague-Dawley, rats, intravenous, 0.5 mg/kg, read-out: Vss): 2.11 ± 0.803 L/kg
Vd ([2]; Sprague-Dawley, rats, intravenous, 5 mg/kg, read-out: Vss): 3.5 ± 1.45 L/kg
Vd ([2]; Sprague-Dawley, rats, intravenous, range over doses 0.5–5 mg/kg, read-out: steady state volume of distribution): 2.04 to 3.5 L/kg
clearance ([2]; Sprague-Dawley, rats, intravenous, range over doses 0.5–5 mg/kg, read-out: systemic clearance): 11.5 to 14.4 mL/min/kg
half-life ([2]; Sprague-Dawley, rats, intravenous, range over doses 0.5–5 mg/kg, read-out: terminal half-life): 2.54 to 2.8 h
concentration at 0.25 h ([3]; oral 0.5 mg/kg): 51 ng/mL
concentration at 0.5 h ([3]; oral 0.5 mg/kg): 99.6 ng/mL
concentration at 1 h ([3]; oral 0.5 mg/kg): 99.6 ng/mL
concentration at 3 h ([3]; oral 0.5 mg/kg): 58 ng/mL
concentration at 7 h ([3]; oral 0.5 mg/kg): 13.1 ng/mL
concentration at 10 h ([3]; oral 0.5 mg/kg): 5 ng/mL
concentration at 24 h ([3]; oral 0.5 mg/kg): 0 ng/mL
concentration at 0.25 h ([3]; oral 5 mg/kg): 474 ng/mL
concentration at 0.5 h ([3]; oral 5 mg/kg): 676 ng/mL
concentration at 1 h ([3]; oral 5 mg/kg): 800 ng/mL
concentration at 3 h ([3]; oral 5 mg/kg): 480 ng/mL
concentration at 7 h ([3]; oral 5 mg/kg): 113 ng/mL
concentration at 10 h ([3]; oral 5 mg/kg): 40.4 ng/mL
concentration at 24 h ([3]; oral 5 mg/kg): 0.5 ng/mL
AUC(0-inf) ([3]; 0.5 mg/kg): 418 ± 133 ng·h/mL
AUC(0-t) ([3]; 0.5 mg/kg): 402 ± 130 ng·h/mL
Cmax ([3]; 0.5 mg/kg): 108 ± 36 ng/mL
MRT ([3]; 0.5 mg/kg): 2.99 ± 0.71 h
Tmax ([3]; 0.5 mg/kg): 0.8 ± 0.274 h
half-life ([3]; 0.5 mg/kg): 2 ± 0.5 h
bioavailability ([3]; 0.5 mg/kg, read-out: F (absolute oral bioavailability)): 57.4 ± 18.3%
AUC(0-inf) ([3]; 5 mg/kg): 3510 ± 1420 ng·h/mL
AUC(0-t) ([3]; 5 mg/kg): 3480 ± 1450 ng·h/mL
Cmax ([3]; 5 mg/kg): 823 ± 340 ng/mL
MRT ([3]; 5 mg/kg): 3.17 ± 0.36 h
Tmax ([3]; 5 mg/kg): 0.75 ± 0.289 h
half-life ([3]; 5 mg/kg): 2.02 ± 0.33 h
bioavailability ([3]; 5 mg/kg, read-out: F (absolute oral bioavailability)): 57.2 ± 23.1%
bioavailability ([3]; range over doses 0.5–5 mg/kg, read-out: absolute oral bioavailability): 56.9 to 57.4%
Structure (SMILES): COc1cc(OC)cc(N2CCN(C(=O)Nc3nc4cc(F)ccc4nc3OC)CC2)c1 [supinoxin, 1-(3,5-Dimethoxyphenyl)-4-[(6-Fluoro-2-Methoxyquinoxalin-3-yl) Aminocarbonyl] Piperazine]
Plasma concentration, Mean ([1]; 0.083 h): 860.2 ng/mL
Plasma concentration, Mean ([1]; 0.25 h): 682.2 ng/mL
Plasma concentration, Mean ([1]; 0.5 h): 501.6 ng/mL
Plasma concentration, Mean ([1]; 1 h): 292.4 ng/mL
Plasma concentration, Mean ([1]; 3 h): 194.2 ng/mL
Plasma concentration, Mean ([1]; 7 h): 52.3 ng/mL
Plasma concentration, Mean ([1]; 10 h): 20.8 ng/mL
Plasma concentration, Mean ([1]; 24 h, BQL treated as 0): 0.5 ng/mL
AUCinf [1, 5]: 1780 ± 300 ng·h/mL
AUClast [1, 5]: 1750 ± 320 ng·h/mL
T1/2 [1, 5]: 2.64 ± 0.39 h
Vss [1, 5]: 2.04 ± 0.316 L/kg
Plasma concentration, Mean ([4]; 0.25 h): 211.9 ng/mL
Plasma concentration, Mean ([4]; 0.5 h): 233.6 ng/mL
Plasma concentration, Mean ([4]; 1 h): 231.2 ng/mL
Plasma concentration, Mean ([4]; 3 h): 122.2 ng/mL
Plasma concentration, Mean ([4]; 7 h): 34.9 ng/mL
Plasma concentration, Mean ([4]; 10 h): 13.7 ng/mL
Plasma concentration, Mean ([4]; 24 h, BQL treated as 0): 0.3 ng/mL
AUCinf [4, 10]: 1010 ± 420 ng·h/mL
AUClast [4, 10]: 984 ± 407 ng·h/mL
Cmax [4, 10]: 250 ± 93 ng/mL
F (absolute oral bioavailability) [4, 10]: 56.9 ± 23.7%
MRT [4, 10]: 3.15 ± 1.26 h
T1/2 [4, 10]: 2.11 ± 0.91 h
Tmax [4, 10]: 0.650 ± 0.337 h
